Measured values taken from the supplement of paper PMC10307832.

Experiments:
Assay in all cases: relative viability (nuclei count vs DMSO), 5 days (fraction); higher = more cells survive
[1] = compound: C=C(c1ccc(C(=O)O)cc1)c1cc2c(cc1C)C(C)(C)CCC2(C)C [Bexarotene] + CC(=O)c1c(C)c2cnc(Nc3ccc(N4CCNCC4)cn3)nc2n(C2CCCC2)c1=O [Palbociclib] (partner 0.5 µM)
Procedure, shortened: (§1)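 Lung cancer cell lines were seeded in 1536-well plates and dosed by pin tool the next day, with either a single drug or a fixed anchor-drug dose combined with five library-drug doses (not always all listed) spaced in √10 steps. Five days later, one step fixed the cells and stained their nuclei (final 0.05% Triton X-100, 1% formaldehyde, 1 ug/ml Hoechst), and nuclei were counted on 4× images. Relative viability is the nuclei count in treated wells divided by the count in vehicle wells, and each value is the median of duplicate plates.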

[2] = compound: C=C(c1ccc(C(=O)O)cc1)c1cc2c(cc1C)C(C)(C)CCC2(C)C [Bexarotene] + CC(C)C[C@H](NC(=O)[C@H](Cc1ccccc1)NC(=O)c1cnccn1)B(O)O [Bortezomib] (partner 0.002 µM)
Procedure, shortened: as §1

[3] = compound: C=C(c1ccc(C(=O)O)cc1)c1cc2c(cc1C)C(C)(C)CCC2(C)C [Bexarotene] + Cc1nc(Nc2ncc(C(=O)Nc3c(C)cccc3Cl)s2)cc(N2CCN(CCO)CC2)n1 [Dasatinib] (partner 0.075 µM)
Procedure, shortened: as §1

[4] = compound: C=C(c1ccc(C(=O)O)cc1)c1cc2c(cc1C)C(C)(C)CCC2(C)C [Bexarotene] + Cc1nc(NC(=O)N2CCC[C@H]2C(N)=O)sc1-c1ccnc(C(C)(C)C(F)(F)F)c1 [Alpelisib] (partner 2 µM)
Procedure, shortened: as §1

Cell Line | relative viability ([1]; first compound 0.08 µM) | relative viability ([1]; first compound 0.253 µM) | relative viability ([1]; first compound 0.8 µM) | relative viability ([1]; first compound 2.53 µM) | relative viability ([1]; first compound 8 µM) | relative viability ([2]; first compound 0.08 µM) | relative viability ([2]; first compound 0.253 µM) | relative viability ([2]; first compound 0.8 µM) | relative viability ([2]; first compound 2.53 µM) | relative viability ([2]; first compound 8 µM) | relative viability ([3]; first compound 0.08 µM) | relative viability ([3]; first compound 0.253 µM) | relative viability ([3]; first compound 0.8 µM) | relative viability ([3]; first compound 2.53 µM) | relative viability ([3]; first compound 8 µM) | relative viability ([4]; first compound 0.08 µM) | relative viability ([4]; first compound 0.253 µM) | relative viability ([4]; first compound 0.8 µM) | relative viability ([4]; first compound 2.53 µM) | relative viability ([4]; first compound 8 µM)
NCI-H520 | 0.271 | 0.182 | 0.198 | 0.229 | 0.207 | 0.805 | 0.588 | 0.518 | 0.385 | 0.534 | 0.223 | 0.211 | 0.204 | 0.215 | 0.187 | 0.99 | 0.775 | 0.708 | 0.826 | 0.803
NCI-H661 | 0.407 | 0.422 | 0.447 | 0.401 | 0.405 | 0.807 | 0.807 | 0.803 | 0.81 | 0.761 | 1.14 | 0.89 | 0.837 | 0.838 | 0.801 | 0.664 | 0.587 | 0.776 | 0.5 | 0.645
NCI-H650 | 0.306 | 0.286 | 0.294 | 0.311 | 0.339 | 0.898 | 1.08 | 0.847 | 0.624 | 0.726 | 0.475 | 0.562 | 0.441 | 0.408 | 0.412 | 1.18 | 1.06 | 1.08 | 1.06 | 1
NCI-H647 | 0.467 | 0.358 | 0.443 | 0.367 | 0.369 | 0.943 | 1.05 | 0.89 | 1.1 | 1.02 | 0.173 | 0.153 | 0.123 | 0.0933 | 0.114 | 1.06 | 1.15 | 1.13 | 1.1 | 0.843
201T | 0.345 | 0.33 | 0.315 | 0.361 | 0.312 | 1.08 | 1.1 | 1.07 | 1.08 | 1.05 | 0.584 | 0.569 | 0.54 | 0.602 | 0.565 | 1.02 | 0.991 | 0.941 | 0.916 | 0.909
NCI-H838 | 0.23 | 0.209 | 0.176 | 0.216 | 0.245 | 0.995 | 1.16 | 0.803 | 0.777 | 0.949 | 0.299 | 0.301 | 0.339 | 0.346 | 0.381 | 1.1 | 1.11 | 1.14 | 1.08 | 1.06
SW 1573 | 0.362 | 0.327 | 0.378 | 0.354 | 0.288 | 0.896 | 0.923 | 0.955 | 0.803 | 0.763 | 0.593 | 0.467 | 0.402 | 0.301 | 0.41 | 0.706 | 0.454 | 0.51 | 0.454 | 0.422
PC-14 | 0.519 | 0.531 | 0.543 | 0.489 | 0.344 | 0.926 | 0.885 | 0.856 | 0.825 | 0.719 | 0.281 | 0.305 | 0.269 | 0.319 | 0.274 | 1.02 | 1.06 | 0.9 | 0.957 | 0.921
COR-L23 | 0.283 | 0.274 | 0.279 | 0.257 | 0.274 | 1.06 | 0.989 | 0.898 | 0.933 | 0.892 | 0.498 | 0.557 | 0.503 | 0.606 | 0.203 | 0.872 | 0.768 | 0.555 | 0.685 | 0.757
HCC-78 | 0.518 | 0.416 | 0.403 | 0.473 | 0.509 | 0.442 | 0.453 | 0.491 | 0.524 | 0.5 | 0.402 | 0.264 | 0.278 | 0.33 | 0.363 | 0.315 | 0.268 | 0.28 | 0.25 | 0.259
NCI-H2405 | 0.541 | 0.557 | 0.44 | 0.565 | 0.508 | 1.07 | 0.945 | 0.836 | 0.896 | 0.92 | 0.219 | 0.247 | 0.136 | 0.144 | 0.188 | 0.935 | 0.915 | 0.52 | 0.806 | 0.864
SK-LU-1 | 0.419 | 0.394 | 0.326 | 0.393 | 0.37 | 1.23 | 1.6 | 0.88 | 1.32 | 1.05 | 0.201 | 0.215 | – | 0.2 | 0.203 | 1.11 | 1.06 | – | 0.97 | 0.988
EMC-BAC-2 | 0.538 | 0.529 | 0.508 | – | 0.502 | 1.24 | 1.03 | 0.97 | 1.05 | 1.03 | 0.328 | 0.316 | 0.294 | 0.309 | 0.334 | 0.748 | 0.735 | 0.705 | 0.73 | 0.719
LCLC-97TM1 | 0.211 | 0.245 | 0.168 | 0.177 | 0.185 | 0.58 | 0.625 | 0.468 | 0.126 | 0.575 | 1.05 | 0.795 | 0.815 | 0.773 | 0.822 | 0.333 | 0.285 | 0.274 | 0.264 | 0.263
H3255 | 0.333 | 0.335 | 0.316 | 0.344 | 0.346 | 0.733 | 0.919 | 0.784 | 0.65 | 0.856 | 0.406 | 0.311 | 0.385 | 0.338 | 0.334 | 0.655 | 0.789 | 0.715 | 0.862 | 0.72
LXF-289 | 0.636 | 0.63 | 0.605 | 0.593 | 0.639 | 1.15 | 1.08 | 1.14 | 1.09 | 1.16 | 0.213 | 0.195 | 0.179 | 0.127 | 0.155 | 1.04 | 1.1 | 1.06 | 1.04 | 0.983
